According to US20210204539A1, “Method for Suppressing Freezing Damage and Composition for Preventing Freezing Damage” (Kyoto University, priority 2018, published 2021):

Experiments:
[1] = tested on: the cells; experiment: Toxicity to the cells when administered at a time other than the low-temperature preservation; type: cell-based; conditions: e.g. during a normal-temperature preservation
[2] = tested on: S1PR; conditions: known; cited from earlier work
[3] = tested on: cell line HepG2 derived from a human liver cancer; experiment: Cold damage suppression, HepG2 cultured at 4° C. for 24 hours, viability after rewarming by alamarBlue (Examples 1, 5, 6); type: cell-based; conditions: HepG2, 4° C. 24 hours, compound 0 M to 50 μM, viability one hour after rewarming at 37° C.
Protocol: Then, the culturing at 4° C. in a low temperature incubator was performed for 24 hours. After the culturing at low temperature for 24 hours, rewarming was carried out using a medium at 37° C., and the viability of cells one hour after the rewarming was determined by detecting enzyme activity using alamarBlue™. The compound concentration was varied from 0 M (Vehicle) to 50 μM, so that the concentration dependency of the compound was observed.
Using the compounds 1 and 3 to 7 synthesized by the above-described scheme, the cell line HepG2 derived from a human liver cancer was cultured under the presence of the respective compounds at low temperature, and cold damage suppression effects were assessed.
HepG2 cells were cultured at 37° C. so as to be at a density of 80 to 90%, and thereafter, the medium was replaced with a medium (DMEM) at 4° C. to which any one of the compounds 1 and 3 to 7 had been added preliminarily. Then, the culturing at 4° C. in a low temperature incubator was performed for 24 hours. After the culturing at low temperature for 24 hours, rewarming was carried out by a medium at 37° C., and the viability of cells one hour […] determined by detecting enzyme activity using alamarBlue™. The compound concentration was varied from 0 M (Vehicle) to 50 μM, so that the concentration dependency of the compound was observed. […]

[4] = tested on: Flp-In™ CHO cell line; experiment: Cold storage time versus viability, Flp-In CHO (Example 2); type: cell-based
Protocol: (§1) Then, the culturing at 4° C. in a low temperature incubator was performed. The cell viability one hour after the rewarming using a medium at 37° C. was determined by detecting enzyme activity with use of alamarBlue™. The relationship between the cold storage time and the viability was observed.

[5] = tested on: cells preserved at low temperature; experiment: Cold damage suppression at varied timings of contact with the compound (Example 3); type: cell-based
Protocol: Cells were cultured at 37° C. so as to be at a density of 80 to 90%, and thereafter, the medium was replaced with a medium at 4° C. Then, the culturing at 4° C. in a low temperature incubator was performed. […] The cell viability one hour after the rewarming using a medium at 37° C. was determined by detecting enzyme activity with use of alamarBlue™.

[6] = tested on: myocardium in the hearts of transplanted rats; experiment: Rat heart 24-hour cold storage and ectopic transplantation, Masson's trichrome staining (Example 4); type: in vivo, LEW rats; conditions: UW solution with 10 μM, 24-hour cold storage at 4° C., one week after transplantation, versus Vehicle group
Protocol: To each of 7 to 8 week-old LEW rats as recipients, laparotomy under general anesthesia was performed to expose the abdominal aorta and the vena cava. Then, the heart in cold storage was taken out of the UW solution, and ectopic transplantation was carried out, by end-to-side anastomosis between the pulmonary artery and the aorta of the donor and the abdominal vena cava and the aorta of the recipient, respectively, followed by laparotomy closure. The heart was removed one week after the transplantation, and the viable area and fibrotic area of myocardium in the heart were compared by using Masson's trichrome staining (N=5 in each group).

[7] = target: S1PR2 (Homo sapiens, UniProt O95136); conditions: reported; cited from earlier work
[8] = target: S1PR1 (Homo sapiens, UniProt P21453); conditions: reported; cited from earlier work
[9] = tested on: human umbilical vascular endothelial cell line HUEhT-2; experiment: Cold storage time versus viability, HUEhT-2 (Example 2); type: cell-based; conditions: HUEhT-2, 10 μM
Protocol: as §1

[10] = tested on: cell line HepG2 derived from a human liver cancer; experiment: Cold storage time versus viability, HepG2 (Example 2); type: cell-based; conditions: HepG2, 10 μM, 4° C., versus Vehicle
Protocol: as §1

[11] = target: S1PR5 (Homo sapiens, UniProt Q9H228); conditions: reported; cited from earlier work
[12] = target: T1, S1PR4 (Homo sapiens, UniProt O95977); conditions: reported; cited from earlier work
T1 sequence (O95977 1-384): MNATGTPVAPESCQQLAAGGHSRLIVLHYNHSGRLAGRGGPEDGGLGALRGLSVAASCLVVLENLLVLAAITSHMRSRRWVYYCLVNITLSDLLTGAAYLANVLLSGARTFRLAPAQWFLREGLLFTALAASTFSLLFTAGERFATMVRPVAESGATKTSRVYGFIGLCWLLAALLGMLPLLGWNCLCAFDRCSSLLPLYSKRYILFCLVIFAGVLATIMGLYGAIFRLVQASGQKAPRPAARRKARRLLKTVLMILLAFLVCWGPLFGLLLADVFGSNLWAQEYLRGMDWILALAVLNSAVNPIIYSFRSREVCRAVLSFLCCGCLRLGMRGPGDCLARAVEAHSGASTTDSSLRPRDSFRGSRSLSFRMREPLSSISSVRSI

Chain of S1PR1 (P21453 whole entry, species assumed): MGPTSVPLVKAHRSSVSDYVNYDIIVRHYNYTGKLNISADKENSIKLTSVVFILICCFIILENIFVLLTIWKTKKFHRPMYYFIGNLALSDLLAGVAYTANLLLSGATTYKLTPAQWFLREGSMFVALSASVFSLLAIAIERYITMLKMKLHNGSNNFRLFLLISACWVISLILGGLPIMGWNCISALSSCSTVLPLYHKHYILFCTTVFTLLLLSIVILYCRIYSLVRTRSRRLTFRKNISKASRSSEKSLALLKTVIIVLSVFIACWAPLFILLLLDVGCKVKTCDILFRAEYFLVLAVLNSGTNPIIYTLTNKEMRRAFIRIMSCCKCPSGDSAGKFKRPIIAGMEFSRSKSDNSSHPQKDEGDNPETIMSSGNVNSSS
Chain of S1PR5 (Q9H228 whole entry, species assumed): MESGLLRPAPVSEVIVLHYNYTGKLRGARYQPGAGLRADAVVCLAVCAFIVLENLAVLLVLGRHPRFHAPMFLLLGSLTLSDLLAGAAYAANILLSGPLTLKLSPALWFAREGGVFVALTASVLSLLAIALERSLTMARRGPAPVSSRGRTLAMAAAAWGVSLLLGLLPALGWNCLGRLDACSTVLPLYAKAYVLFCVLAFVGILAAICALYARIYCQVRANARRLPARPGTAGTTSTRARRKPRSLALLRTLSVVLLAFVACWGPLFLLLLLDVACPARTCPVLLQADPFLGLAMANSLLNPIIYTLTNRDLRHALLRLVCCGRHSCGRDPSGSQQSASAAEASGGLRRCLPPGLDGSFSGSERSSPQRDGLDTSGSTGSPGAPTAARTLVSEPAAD
Chain of S1PR2 (O95136 whole entry, species assumed): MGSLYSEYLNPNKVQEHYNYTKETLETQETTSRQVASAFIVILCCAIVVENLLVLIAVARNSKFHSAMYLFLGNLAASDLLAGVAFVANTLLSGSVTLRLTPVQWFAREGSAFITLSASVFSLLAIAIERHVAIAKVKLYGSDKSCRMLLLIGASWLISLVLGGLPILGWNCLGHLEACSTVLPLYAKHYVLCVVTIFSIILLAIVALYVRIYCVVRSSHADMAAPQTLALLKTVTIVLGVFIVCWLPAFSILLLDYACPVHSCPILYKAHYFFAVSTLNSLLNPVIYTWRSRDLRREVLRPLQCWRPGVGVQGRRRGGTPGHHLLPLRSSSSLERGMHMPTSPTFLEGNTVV

## Cc1nn(C)c2nc(NNC(=O)Nc3cc(Cl)nc(Cl)c3)cc(C(C)C)c12 [Compound 2, N-(2,6-dichloro-4-pyridinyl)-2-[1,3-dimethyl-4-(1-methylethyl)-1H-pyrazolo[3,4-b]pyridin-6-yl]-hydrazinecarboxamide]
[1]
  toxicity to the cells: did not exhibit toxicity
[2]
  S1PR antagonist: S1PR antagonists
[3]
  amelioration of the deterioration of cell viability during the low-temperature preservation (cold damage suppression): concentration-dependent amelioration

## CC(C)(C)C(=O)/C(=N/c1ccc(Cl)cc1)NNc1ccc(Cl)cc1 [Compound 1, N-(4-chlorophenyl)-N′-(4-chlorophenylamino)-3,3-dimethyl-2-oxobutanamidine]
[4]; 10 μM, 4° C., versus Vehicle
  amelioration of the deterioration of cell viability during the low-temperature preservation: amelioration of the deterioration of cell viability
[4]; Cricetulus griseus, 360 h, low-temperature preservation period 15 days
  viability at 10 µM: > 50%
[5]; 10 μM added simultaneously with the start of the low-temperature preservation
  cold damage (deterioration of viability) suppression: could be suppressed
[5]; 10 μM added to the medium before the start of the low-temperature preservation
  cold damage (deterioration of viability) suppression: could be suppressed
[5]; 10 μM added when the temperature was turned to 37° C. after the low-temperature preservation (Rewarm treat)
  cold damage (deterioration of viability) suppression: not sufficiently suppressed
[1]
  toxicity to the cells: did not exhibit toxicity
[6]
  fibrotic area of myocardium: less fibrotic one
  viable area of myocardium: more viable myocardium
[7]
  inhibiting activity to S1PR2: has an inhibiting activity
[2]
  S1PR antagonist: S1PR antagonists
[8]
  inhibiting activity to S1PR1: has an inhibiting activity
[9]; 4° C., versus Vehicle
  amelioration of the deterioration of cell viability during the low-temperature preservation: amelioration of the deterioration of cell viability
[9]; Homo sapiens, Endothelial cell, 360 h, low-temperature preservation period 15 days
  viability at 10 µM: > 50%
[3]
  amelioration of the deterioration of cell viability during the low-temperature preservation (cold damage suppression): concentration-dependent amelioration
[10]
  amelioration of the deterioration of cell viability during the low-temperature preservation: amelioration of the deterioration of cell viability
[11]
  inhibiting activity to S1PR5: has an inhibiting activity
[12]
  inhibiting activity to S1PR4: has an inhibiting activity
